Tests used:
Test in all cases: apoptotic fraction of cells (caspase-3 NucView488 positive); higher = more apoptosis
WM1552C = system: WM1552C
Procedure: (§1)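 BRAF V600E/D melanoma cell lines were seeded in 96-well plates, treated in 4 replicates with seven doses (3.16 nM to 3.16 uM) of RAF/MEK inhibitors for 24, 48 or 72 h, and stained with Hoechst 33342 (nuclei) and DEVD-NucView488 caspase-3 substrate. Plates were imaged on an Operetta. Relative viability is the cell count normalised to a DMSO-treated control; apoptosis fraction is the fraction of NucView488-positive nuclei.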

RVH421 = system: RVH421
Procedure: as §1

MZ7MEL = system: MZ7MEL
Procedure: as §1

SKMEL28 = system: SKMEL28
Procedure: as §1

COLO858 = system: COLO858
Procedure: as §1

C32 = system: C32
Procedure: as §1

Cn1cnc2c(F)c(Nc3ccc(Br)cc3Cl)c(C(=O)NOCCO)cc21 [Selumetinib]
apoptotic fraction of cells
Conditions	0.00316 µM	0.01 µM	0.0316 µM	0.1 µM	0.316 µM	1 µM	3.16 µM
C32, 24 h	0.0878	0.113	0.144	0.213	0.215	0.236	0.272
C32, 48 h	0.0773	0.0963	0.0636	0.107	0.262	0.598	0.83
C32, 72 h	0.103	0.0822	0.0406	0.108	0.403	0.759	0.862
COLO858, 24 h	0.0501	0.0441	0.0433	0.0474	0.083	0.137	0.149
COLO858, 48 h	0.0496	0.049	0.0473	0.0649	0.155	0.232	0.313
COLO858, 72 h	0.0958	0.0753	0.0678	0.0769	0.134	0.259	0.383
MZ7MEL, 24 h	0.0105	0.0133	0.0129	0.013	0.021	0.03	0.0358
MZ7MEL, 48 h	0.02	0.0157	0.0142	0.0195	0.0385	0.0514	0.0696
MZ7MEL, 72 h	0.0201	0.0173	0.0366	0.108	0.158	0.239	0.314
RVH421, 24 h	0.0531	0.0501	0.0442	0.0496	0.0515	0.0523	0.0612
RVH421, 48 h	0.0489	0.0601	0.0622	0.0642	0.0635	0.0671	0.0755
RVH421, 72 h	0.0328	0.0321	0.0318	0.0418	0.0438	0.0599	0.0977
SKMEL28, 48 h	0.0348	0.0333	0.0343	0.0355	0.0422	0.0573	0.0991
SKMEL28, 72 h	0.036	0.0338	0.0305	0.037	0.0563	0.111	0.214
WM1552C, 24 h	0.0571	0.0689	0.0771	0.0894	0.0876	0.112	0.0803
WM1552C, 48 h	0.065	0.0655	0.0575	0.0656	0.0753	0.0765	0.1
WM1552C, 72 h	0.0885	0.073	0.0737	0.0814	0.104	0.146	0.19

CCCS(=O)(=O)Nc1ccc(F)c(C(=O)c2c[nH]c3ncc(Cl)cc23)c1F [PLX4720]
apoptotic fraction of cells
Conditions	0.00316 µM	0.01 µM	0.0316 µM	0.1 µM	0.316 µM	1 µM	3.16 µM
C32, 24 h	0.0873	0.121	0.119	0.153	0.174	0.245	0.29
C32, 48 h	0.0967	0.159	0.158	0.105	0.143	0.465	0.784
C32, 72 h	0.0846	0.0849	0.0684	0.0354	0.215	0.619	0.813
COLO858, 24 h	0.0469	0.0452	0.0424	0.0482	0.0562	0.108	0.154
COLO858, 48 h	0.0522	0.0523	0.0462	0.0498	0.0785	0.184	0.323
COLO858, 72 h	0.0883	0.0826	0.0717	0.053	0.0842	0.183	0.374
MZ7MEL, 24 h	0.013	0.0082	0.01	0.00501	0.00918	0.0127	0.0325
MZ7MEL, 48 h	0.0158	0.0193	0.0129	0.0113	0.0205	0.0277	0.0483
MZ7MEL, 72 h	0.0184	0.0171	0.0142	0.0198	0.0439	0.105	0.151
RVH421, 24 h	0.0586	0.0457	0.0542	0.052	0.0578	0.0478	0.0574
RVH421, 48 h	0.0464	0.062	0.0512	0.05	0.058	0.0593	0.0831
RVH421, 72 h	0.0342	0.035	0.0338	0.0375	0.0466	0.051	0.0617
SKMEL28, 48 h	0.0324	0.0306	0.0349	0.035	0.0365	0.0401	0.0568
SKMEL28, 72 h	0.0401	0.0409	0.0321	0.0301	0.0373	0.0372	0.105
WM1552C, 24 h	0.0609	0.0582	0.0522	0.0708	0.0728	0.0756	0.0738
WM1552C, 48 h	0.0618	0.0656	0.0655	0.0534	0.044	0.0563	0.0762
WM1552C, 72 h	0.0768	0.0708	0.0682	0.063	0.0671	0.0953	0.129

CCCS(=O)(=O)Nc1ccc(F)c(C(=O)c2c[nH]c3ncc(-c4ccc(Cl)cc4)cc23)c1F [Vemurafenib]
apoptotic fraction of cells
Conditions	0.00316 µM	0.01 µM	0.0316 µM	0.1 µM	0.316 µM	1 µM	3.16 µM
C32, 24 h	0.0798	0.139	0.166	0.186	0.202	0.17	0.309
C32, 48 h	0.11	0.173	0.186	0.127	0.0971	0.407	0.862
C32, 72 h	0.0761	0.0907	0.0843	0.061	0.114	0.658	0.928
COLO858, 24 h	0.0468	0.0448	0.0467	0.0418	0.0538	0.0998	0.151
COLO858, 48 h	0.0487	0.0502	0.048	0.0491	0.0797	0.194	0.453
COLO858, 72 h	0.0879	0.0831	0.0746	0.0587	0.0687	0.25	0.723
MZ7MEL, 24 h	0.0137	0.0131	0.00722	0.00978	0.0118	0.0206	0.0379
MZ7MEL, 48 h	0.0184	0.0167	0.0196	0.0148	0.0203	0.0385	0.0682
MZ7MEL, 72 h	0.0218	0.0158	0.0159	0.0167	0.0378	0.103	0.193
RVH421, 24 h	0.04937	0.0545	0.0463	0.0489	0.0609	0.0547	0.0664
RVH421, 48 h	0.0497	0.0508	0.0538	0.0604	0.0622	0.0737	0.0864
RVH421, 72 h	0.0342	0.0343	0.0341	0.0335	0.0444	0.0453	0.0682
SKMEL28, 48 h	0.0412	0.0316	0.0337	0.0359	0.0364	0.038	0.0538
SKMEL28, 72 h	0.0393	0.0398	0.0297	0.0272	0.0276	0.0399	0.147
WM1552C, 24 h	0.0617	0.0655	0.0602	0.0665	0.0682	0.0745	0.0696
WM1552C, 48 h	0.078	0.0701	0.0688	0.0684	0.063	0.0641	0.0951
WM1552C, 72 h	0.088	0.0756	0.0733	0.0668	0.0671	0.0874	0.164

Reference: the supplement of paper PMC4380931
